In patent publication US11980625B2, “Ganaxolone for use in treating tuberous sclerosis complex” (Marinus Pharmaceuticals, Inc., priority 2019, dated 2024):

What was measured:
[1] = tested on: cytochrome P450 (CYP) isoenzymes 1A1/2 and 2B1/2; experiment: Induction of CYP isoenzymes in rats; assay type: in vivo; conditions: female versus male rats
[2] = Mutagenicity
[3] = Solubility of ganaxolone; assay type: physicochemical
Procedure: Ganaxolone is insoluble in water. Its solubilities in 95% alcohol, propylene glycol and polyethylene glycol are 13 mg/mL, 3.5 mg/mL and 3.1 mg/mL, respectively.
The pregnenolone neurosteroid (e.g., ganaxolone) formulations suitable may also be administered parenterally. In such embodiments, the formulations are suitable for intramuscular, subcutaneous, or intravenous injection may comprise physiologically acceptable sterile aqueous or non-aqueous solutions, dispersions, suspensions or emulsions, and sterile powders for reconstitution into sterile injectable solutions or dispersions. Examples of suitable aqueous and non-aqueous carriers, diluents, solvents, or vehicles including water, ethanol, polyols (propylene glycol, polyethylene-glycol, glycerol, cremophor and the like), suitable mixtures thereof, vegetable oils (such as olive oil) and injectable organic esters such as ethyl oleate. Additionally, Ganaxolone can be dissolved at concentrations of >1 mg/ml using water soluble beta cyclodextrins (e.g. beta-sulfobutyl-cyclodextrin and 2-hydroxypropylbetacyclodextrin). A particularly suitable cyclodextrin is a substituted-β-cyclodextrin is Captisol®. Proper fluidity can be maintained, for example, by the use of a coating such as lecithin, by the maintenance of the required particle size in the case of dispersions, and by the use of surfactants. […]

SMILES: CC(=O)[C@H]1CC[C@H]2[C@@H]3CC[C@H]4C[C@](C)(O)CC[C@]4(C)[C@H]3CC[C@]12C [Ganaxolone, 3α-hydroxy-3β-methyl-5α-pregnan-20-one]
- induction of CYP isoenzymes [1]: induces major cytochrome P450 (CYP) isoenzymes 1A1/2 and 2B1/2 in female rats but not males
- mutagenicity [2]: No potential for mutagenicity was detected
- solubility ([3]; aqueous with cosolvent or surfactant or cyclodextrin, beta-sulfobutyl-cyclodextrin, 2-hydroxypropylbetacyclodextrin, read-out: concentration dissolved using water soluble beta cyclodextrins): > 1000 µg/mL
- solubility in water ([3]; water): insoluble
